Laboratory results as given in ChEMBL document CHEMBL3091428, “Synthesis and initial biological evaluation of substituted 1-phenylamino-2-thio-4,5-dimethyl-1H-imidazole derivatives” (Bioorg Med Chem Lett, 2013).
Values after ≈ are worked out from the molar mass of the structure shown.

What was measured:
TK-10 = experiment: Cytotoxicity against human TK10 cells assessed as cell growth after 48 hrs by SRB assay relative to control; format: functional
RXF 393 = experiment: Cytotoxicity against human RXF393 cells assessed as cell growth after 48 hrs by SRB assay relative to control; format: functional
SN12C = experiment: Cytotoxicity against human SN12C cells assessed as cell growth after 48 hrs by SRB assay relative to control; format: functional
CAKI-1 = experiment: Cytotoxicity against human Caki1 cells assessed as cell growth after 48 hrs by SRB assay relative to control; format: functional
ACHN = experiment: Cytotoxicity against human ACHN cells assessed as cell growth after 48 hrs by SRB assay relative to control; format: functional
[1] = Cytotoxicity against human NCI-ADR-RES cells assessed as cell growth after 48 hrs by SRB assay relative to control; format: functional
[2] = Cytotoxicity against human OVCAR5 cells assessed as cell growth after 48 hrs by SRB assay relative to control; format: functional, OVCAR-5
OVCAR-8 = experiment: Cytotoxicity against human OVCAR8 cells assessed as cell growth after 48 hrs by SRB assay relative to control; format: functional
[3] = Cytotoxicity against human OVCAR4 cells assessed as cell growth after 48 hrs by SRB assay relative to control; format: functional, OVCAR-4
OVCAR-3 = experiment: Cytotoxicity against human OVCAR3 cells assessed as cell growth after 48 hrs by SRB assay relative to control; format: functional
IGROV-1 = experiment: Cytotoxicity against human IGROV1 cells assessed as cell growth after 48 hrs by SRB assay relative to control; format: functional
UACC-62 = experiment: Cytotoxicity against human UACC62 cells assessed as cell growth after 48 hrs by SRB assay relative to control; format: functional
SK-MEL-5 = experiment: Cytotoxicity against human SK-MEL-5 cells assessed as cell growth after 48 hrs by SRB assay relative to control; format: functional
[4] = Cytotoxicity against human UACC257 cells assessed as cell growth after 48 hrs by SRB assay relative to control; format: functional, UACC-257
SK-MEL-2 = experiment: Cytotoxicity against human SK-MEL-2 cells assessed as cell growth after 48 hrs by SRB assay relative to control; format: functional
Malme-3M = experiment: Cytotoxicity against human MALME-3M cells assessed as cell growth after 48 hrs by SRB assay relative to control; format: functional
SNB-75 = experiment: Cytotoxicity against human SNB75 cells assessed as cell growth after 48 hrs by SRB assay relative to control; format: functional
SNB-19 = experiment: Cytotoxicity against human SNB19 cells assessed as cell growth after 48 hrs by SRB assay relative to control; format: functional
SF-539 = experiment: Cytotoxicity against human SF539 cells assessed as cell growth after 48 hrs by SRB assay relative to control; format: functional
SF-295 = experiment: Cytotoxicity against human SF295 cells assessed as cell growth after 48 hrs by SRB assay relative to control; format: functional
SW-620 = experiment: Cytotoxicity against human SW620 cells assessed as cell growth after 48 hrs by SRB assay relative to control; format: functional
KM12 = experiment: Cytotoxicity against human KM12 cells assessed as cell growth after 48 hrs by SRB assay relative to control; format: functional
HT-29 = experiment: Cytotoxicity against human HT-29 cells assessed as cell growth after 48 hrs by SRB assay relative to control; format: functional
HCC 2998 = experiment: Cytotoxicity against human HCC2998 cells assessed as cell growth after 48 hrs by SRB assay relative to control; format: functional
COLO 205 = experiment: Cytotoxicity against human COLO205 cells assessed as cell growth after 48 hrs by SRB assay relative to control; format: functional
NCI-H522 = experiment: Cytotoxicity against human NCI-H522 cells assessed as cell growth after 48 hrs by SRB assay relative to control; format: functional
NCI-H322M = experiment: Cytotoxicity against human NCI-H322M cells assessed as cell growth after 48 hrs by SRB assay relative to control; format: functional
NCI-H23 = experiment: Cytotoxicity against human NCI-H23 cells assessed as cell growth after 48 hrs by SRB assay relative to control; format: functional
NCI-H226 = experiment: Cytotoxicity against human NCI-H226 cells assessed as cell growth after 48 hrs by SRB assay relative to control; format: functional
HOP-92 = experiment: Cytotoxicity against human HOP92 cells assessed as cell growth after 48 hrs by SRB assay relative to control; format: functional
SR = experiment: Cytotoxicity against human SR cells assessed as cell growth after 48 hrs by SRB assay relative to control; format: functional
RPMI-8226 = experiment: Cytotoxicity against human RPMI8226 cells assessed as cell growth after 48 hrs by SRB assay relative to control; format: functional
K562 = experiment: Cytotoxicity against human K562 cells assessed as cell growth after 48 hrs by SRB assay relative to control; format: functional
HL-60(TB) = experiment: Cytotoxicity against human HL-60(TB) cells assessed as cell growth after 48 hrs by SRB assay relative to control; format: functional
Nakaseomyces glabratus = experiment: Antimicrobial activity against Candida glabrata ATCC 90030 after 24 hrs by broth microdilution method; format: functional; details: ATCC 90030, 24 h
Candida albicans = experiment: Antimicrobial activity against Candida albicans ATCC 90028 after 24 hrs by broth microdilution method; format: functional; details: ATCC 90028, 24 h
Staphylococcus aureus = experiment: Antimicrobial activity against Staphylococcus aureus ATCC 25923 after 24 hrs by broth microdilution method; format: functional; details: ATCC 25923, 24 h
Enterococcus faecalis [5] = experiment: Antimicrobial activity against Enterococcus faecalis ATCC 51299 after 24 hrs by broth microdilution method; format: functional; details: ATCC 51299, 24 h
Enterococcus faecalis [6] = experiment: Antimicrobial activity against Enterococcus faecalis ATCC 29212 after 24 hrs by broth microdilution method; format: functional; details: ATCC 29212, 24 h
Pseudomonas aeruginosa = experiment: Antimicrobial activity against Pseudomonas aeruginosa ATCC 27853 after 24 hrs by broth microdilution method; format: functional; details: ATCC 27853, 24 h
Klebsiella pneumoniae = experiment: Antimicrobial activity against Klebsiella pneumoniae ATCC 13883 after 24 hrs by broth microdilution method; format: functional; details: ATCC 13883, 24 h
Escherichia coli = experiment: Antimicrobial activity against Escherichia coli ATCC 25922 after 24 hrs by broth microdilution method; format: functional; details: ATCC 25922, 24 h
T47D = experiment: Cytotoxicity against human T47D cells assessed as cell growth after 48 hrs by SRB assay relative to control; format: functional
BT-549 = experiment: Cytotoxicity against human BT549 cells assessed as cell growth after 48 hrs by SRB assay relative to control; format: functional
MDA-MB-231 = experiment: Cytotoxicity against human MDA-MB-231 cells assessed as cell growth after 48 hrs by SRB assay relative to control; format: functional
MCF7 = experiment: Cytotoxicity against human MCF7 cells assessed as cell growth after 48 hrs by SRB assay relative to control; format: functional
DU-145 = experiment: Cytotoxicity against human DU145 cells assessed as cell growth after 48 hrs by SRB assay relative to control; format: functional
PC-3 = experiment: Cytotoxicity against human PC3 cells assessed as cell growth after 48 hrs by SRB assay relative to control; format: functional
[7] = Cytotoxicity against human UO31 cells assessed as cell growth after 48 hrs by SRB assay relative to control; format: functional, UO-31

## COc1ccc(C(=O)CSc2nc(C)c(C)n2Nc2ccccc2)cc1
TK-10
  Activity: 109.3%
RXF 393
  Activity: 85.48%
SN12C
  Activity: 98.88%
CAKI-1
  Activity: 81.41%
ACHN
  Activity: 99.05%
[1]
  Activity: 83.61%
[2]
  Activity: 99.29%
OVCAR-8
  Activity: 100.7%
[3]
  Activity: 92.83%
OVCAR-3
  Activity: 101.3%
IGROV-1
  Activity: 103.3%
UACC-62
  Activity: 90.38%
SK-MEL-5
  Activity: 100.7%
[4]
  Activity: 99.75%
SK-MEL-2
  Activity: 94.21%
Malme-3M
  Activity: 101.4%
SNB-75
  Activity: 93.05%
SNB-19
  Activity: 96.63%
SF-539
  Activity: 100.8%
SF-295
  Activity: 90.39%
SW-620
  Activity: 105.7%
KM12
  Activity: 97.97%
HT-29
  Activity: 94.25%
HCC 2998
  Activity: 93.49%
COLO 205
  Activity: 100.5%
NCI-H522
  Activity: 77.18%
NCI-H322M
  Activity: 82.37%
NCI-H23
  Activity: 88.38%
NCI-H226
  Activity: 92.08%
HOP-92
  Activity: 82.74%
SR
  Activity: 83.4%
RPMI-8226
  Activity: 94.68%
K562
  Activity: 87.79%
HL-60(TB)
  Activity: 87.13%
Nakaseomyces glabratus
  MIC: 800 µg/mL (≈ 2180 µM)
Candida albicans
  MIC: 400 µg/mL (≈ 1090 µM)
Staphylococcus aureus
  MIC: 800 µg/mL (≈ 2180 µM)
Enterococcus faecalis [5]
  MIC: 800 µg/mL (≈ 2180 µM)
Enterococcus faecalis [6]
  MIC: 400 µg/mL (≈ 1090 µM)
Pseudomonas aeruginosa
  MIC: 200 µg/mL (≈ 544 µM)
Klebsiella pneumoniae
  MIC: 800 µg/mL (≈ 2180 µM)
Escherichia coli
  MIC: 400 µg/mL (≈ 1090 µM)
T47D
  Activity: 71.62%
BT-549
  Activity: 84.66%
MDA-MB-231
  Activity: 89.05%
MCF7
  Activity: 105.7%
DU-145
  Activity: 111.6%
PC-3
  Activity: 89.35%
[7]
  Activity: 69.91%

## Cc1nc(SCC(=O)c2ccc(Cl)cc2)n(Nc2ccccc2)c1C
TK-10
  Activity: 117.2%
RXF 393
  Activity: 96.88%
SN12C
  Activity: 93.18%
CAKI-1
  Activity: 78.89%
ACHN
  Activity: 102.7%
[1]
  Activity: 93.39%
[2]
  Activity: 103.9%
OVCAR-8
  Activity: 96.67%
[3]
  Activity: 93.89%
OVCAR-3
  Activity: 108.6%
IGROV-1
  Activity: 102.1%
UACC-62
  Activity: 90.32%
SK-MEL-5
  Activity: 96.98%
[4]
  Activity: 97.88%
SK-MEL-2
  Activity: 91.02%
Malme-3M
  Activity: 97.11%
SNB-75
  Activity: 94.11%
SNB-19
  Activity: 89%
SF-539
  Activity: 103.9%
SF-295
  Activity: 89.88%
SW-620
  Activity: 108.9%
KM12
  Activity: 105%
HT-29
  Activity: 99.26%
HCC 2998
  Activity: 106.9%
COLO 205
  Activity: 96.15%
NCI-H522
  Activity: 79.92%
NCI-H322M
  Activity: 88.63%
NCI-H23
  Activity: 89.25%
NCI-H226
  Activity: 95.15%
HOP-92
  Activity: 76.51%
SR
  Activity: 86.04%
RPMI-8226
  Activity: 92.33%
K562
  Activity: 88.1%
HL-60(TB)
  Activity: 92.02%
Nakaseomyces glabratus
  MIC: 400 µg/mL (≈ 1080 µM)
Candida albicans
  MIC: 200 µg/mL (≈ 538 µM)
Staphylococcus aureus
  MIC: 800 µg/mL (≈ 2150 µM)
Enterococcus faecalis [5]
  MIC: 400 µg/mL (≈ 1080 µM)
Enterococcus faecalis [6]
  MIC: 200 µg/mL (≈ 538 µM)
Pseudomonas aeruginosa
  MIC: 400 µg/mL (≈ 1080 µM)
Klebsiella pneumoniae
  MIC: 800 µg/mL (≈ 2150 µM)
Escherichia coli
  MIC: 800 µg/mL (≈ 2150 µM)
T47D
  Activity: 79.51%
BT-549
  Activity: 104.7%
MDA-MB-231
  Activity: 95.48%
MCF7
  Activity: 88.08%
DU-145
  Activity: 115.8%
PC-3
  Activity: 91.86%
[7]
  Activity: 66.15%
